Several values for one entry are separate records, joined by “and”; a condition that tells them apart may be missing. Identical values can stand only once.
What was measured:
[1] = system: LPS-induced NO production in RAW264.7 cells; experiment: LPS-induced NO production in RAW264.7 cells (Griess reaction); format: cell-based
Method: The inhibitory activities of compounds 1–16 on LPS stimulated macrophages was determined by Griess reaction. The NO content was detected by the NO kit according to the protocol described earlier ([23]). RAW264.7 cells obtained from the China Center for Cultivated Studies (Shanghai, China) were maintained in DMEM containing 10% FBS, and under 5% CO2 at 37°C. Briefly, the cells were seeded in a 96-well plate (1 × 10^5 cells/well), after 8 h of pre-incubation under 5% CO2 at 37°C, compounds 1–16 were added to the well plate, respectively, for 12 h. […] The supernatant of the cell culture were collected 24 h later.

RAW264.7 cells = experiment: RAW264.7 cell viability, SRB assay; format: cell-based
Method: The cytotoxicity of limonin 2 to RAW264.7 cells was detected by SRB assay. […] Therefore, compound 2 of 0–20 μm was used in subsequent experiments to avoid the influence of cytotoxic and anti-inflammatory effect detection.
Fig. 2 Effect of compound 2 on RAW264.7 cells viability. RAW264.7 cells were treated by assigned concentration of compound 2 or DMSO for 24 h. The data are expressed as the mean ± SEM (n = 3). The cells viability (%) = (ODcompound 2 – ODDMSO)/ODDMSO ×100. *P < 0.05,**P < 0.01 compared with control cells treated by DMSO. Statistical differences were analyzed by unpaired t-test.

IL-6 = IL-6 production in LPS-induced macrophages, ELISA; format: cell-based; conditions: compound 2 at 2.3 and 9.2 μmol/L, LPS 1 μg/mL, 24 h, Fig. 3C
Method: (§1) After 8 h of pre-incubation under 5% CO2 at 37°C, limonin 2 was added to the well plate, respectively, for 12 h. Then the cell of administration group and model group were induced with LPS (2 µg/mL) and the control group was treated with DMSO as contrast. The cell supernatants of samples were collected to detect the content of IL-6 and TNF-α by ELISA according to manufacturer protocol. And the normal range of IL-6 and TNF-αELISA kits is 3.75–120 pg/mL and 20–640 pg/mL, respectively.
(§2) Fig. 3 Effects of compound 2 on the production of TNF-α, NO and IL-6 in LPS-induced macrophages. The macrophages were incubated with LPS (1 μg/mL) and treated with compound 2 (2.3 and 9.2 μmol/L) for 24 h. Indomethacin (INM) was used as the positive control. (A) The levels of TNF-α, (B) NO, and (C) IL-6 in the supernatant were assayed using ELISA kits. All values given are the mean ± SEM. *P <0.05, **P <0.01 compared with the LPS group.

TNF-α = TNF-α production in LPS-induced macrophages, ELISA; format: cell-based; conditions: compound 2 at 2.3 and 9.2 μmol/L, LPS 1 μg/mL, 24 h, Fig. 3A
Method: as §1, §2

NF-κB p-P65 = experiment: Western blot, NF-κB p-P65 in LPS-treated macrophages; format: cell-based; conditions: Fig. 4
Method: (§3) Western blot analysis was performed to observe the activities of limonin 2 on NF-κB P65, JAK, STAT, IKBα, IKKα, iNOS and eNOS protein levels. Macrophages were dispersed in 6 well plates for 24 h. After incubation, the cells were processed by HFPS and treated with LPS for 24 h. After treatment, cells were harvested and lysed. Western blot analysis was based on the methods described previously ([24]).
(§4) The NF-κB signaling cascade plays an important role in the adjustment of inflammation ([43], [44]). The expression of NF-κB P65, IKB, and IKKα were measured by Western blot to investigate the anti-inflammatory mechanism of limonin 2. […] Limonin 2 inhibited the phosphorylation and degradation of IKBα (Fig. 4A, D and E) and IKKα (Fig. 4A, F and G).

IKBα = experiment: Western blot, IKBα in LPS-treated macrophages; format: cell-based; conditions: Fig. 4
Method: as §3, §4

IKKα = experiment: Western blot, IKKα in LPS-treated macrophages; format: cell-based; conditions: Fig. 4
Method: as §3, §4

JAK2 = experiment: Western blot, JAK2 in LPS-treated macrophages; format: cell-based; conditions: LPS-treated RAW264.7 cells, Fig. 5
Method: as §3
(§5) To study the effect of limonin 2 on the STAT signaling cascades of LPS-treated macrophage, the levels of JAK2 and STAT3 was measured ([45]).

STAT3 = experiment: Western blot, STAT3 in LPS-treated macrophages; format: cell-based; conditions: LPS-treated RAW264.7 cells, Fig. 5
Method: as §3, §5

iNOS = experiment: Western blot, iNOS in LPS-treated macrophages; format: cell-based; conditions: Fig. 6
Method: as §3
(§6) To study the effect of limonin 2 on eNOS signaling cascade on LPS treated macrophages ([46]), the level of eNOS was measured. The upregulation of iNOS expression in LPS-treated macrophage was observed (Fig. 6A and B). Compound 2 inhibited the expression of iNOS stimulated by LPS in macrophage. At the same time, downregulation of eNOS protein expression was also found in LPS-stimulated macrophages (Fig. 6A and C).

eNOS = experiment: Western blot, eNOS in LPS-treated macrophages; format: cell-based; conditions: LPS-stimulated macrophages, Fig. 6
Method: as §3, §6

[2] = Cytotoxicity, SRB method, Huh-7; format: cell-based, human; conditions: human, Huh-7 (hepatoma) cells
Method: (§7) Huh-7 (hepatoma), MCF-7 (human breast), KB (oral epithelial), Hela (cervical), H460 (lung), A-549 (lung), and HepG2 (hepatocellular) cancer cell lines (provided by Shanghai Cell Bank) were maintained in RPMI 1640 at 37 ℃, supplemented with 10% FBS. Cytotoxicity was determined by the SRB method, with 5-fluorouracil (5-FU) as a positive control. The IC50 value was calculated using the GraphPad prism program.

[3] = Cytotoxicity, SRB method, HepG2; format: cell-based, human; conditions: human, HepG2 (hepatocellular) cells
Method: as §7

[4] = Cytotoxicity, SRB method, KB; format: cell-based, human; conditions: human, KB (oral epithelial) cells
Method: as §7

[5] = Cytotoxicity, SRB method, H460; format: cell-based, human; conditions: human, H460 (lung) cells
Method: as §7

[6] = Cytotoxicity, SRB method, Hela; format: cell-based, human; conditions: human, Hela (cervical) cells
Method: as §7

[7] = Cytotoxicity, SRB method, A549; format: cell-based, human; conditions: human, A-549 (lung) cells
Method: as §7

[8] = Cytotoxicity, SRB method, MCF-7; format: cell-based, human; conditions: human, MCF-7 (human breast) cells
Method: as §7

IC50 ([1]; Mus musculus, RAW264.7 cells, LPS 2 µg/mL, supernatant after 24 h, read-out: IC50, inhibitory activity on LPS-induced NO production in RAW264.7 cells): 4.58 ± 0.72 µM
SMILES: CCC(=O)OC1C2(O)C(OC(=O)C=CC(C)C)C3(C)CC24OC2(C)OC15C1CC(=O)OC(C6=CC(O)OC6=O)C1(C)CCC5(O2)C4(C)C3CC(=O)OC (centres unmarked) [Compound 2, Chukrasin F]
production of NO in LPS-treated macrophages (in words) ([1]; compound 2 at 2.3 and 9.2 μmol/L, LPS 1 μg/mL, 24 h, Fig. 3B): notably inhibited | viability of RAW264.7 cells (in words) (RAW264.7 cells; compound 2 at 0–20 μm, within 24 h): not notably affected | relative survival rate of RAW264.7 cells (RAW264.7 cells; limonin 2 at 5 ~ 200 μM (seven rising concentrations, not listed singly), 24 h, SRB): 100.7% and 96.3% and 93.9% and 88.0% and 76.4% and 64.4% and 56.7% | production of IL-6 in LPS-treated macrophages (in words) (IL-6): notably inhibited | production of TNF-α in LPS-treated macrophages (in words) (TNF-α): notably inhibited | expression of NF-κB p-P65 (in words) (NF-κB p-P65): downregulates | phosphorylation and degradation of IKBα (in words) (IKBα): inhibited | phosphorylation and degradation of IKKα (in words) (IKKα): inhibited | expression level of JAK2 (in words) (JAK2): notably reduced | expression level of STAT3 (in words) (STAT3): notably reduced | expression of iNOS stimulated by LPS (in words) (iNOS): inhibited | eNOS protein expression (in words) (eNOS): completely restored | IC50 [2]: 72.1 ± 13.5 µM | IC50 [3]: 69.4 ± 10.6 µM | IC50 [4]: 39.2 ± 2.17 µM | IC50 [5]: 60.8 ± 6.96 µM | IC50 [6]: 33.2 ± 8.41 µM | IC50 [7]: 54.7 ± 10.1 µM | IC50 [8]: 23.4 ± 5.81 µM
